Results as given in US20200306295A1, “METHOD AND DEVICE FOR ANNIHILATION OF Staphylococcus aureus” (priority 2017, published 2020).

Test system: 200 kinds of cytokines
Assay: Fold change of 200 cytokines in homogenized wound tissue
Format: in vivo, Balb/c mice
Conditions: mean; wound tissue
Excerpt: To quantify the physiological condition of the wound tissues, we measured the concentrations of 200 kinds of cytokines (Table. 1) from the supernatant of homogenized tissue solution. Cytokines are small secreted proteins released by cells and have specific effect on the interactions and communications between cells (25).
To initiate the formation of a skin wound, five groups (n=5) of eight-week old female Balb/c mice (obtained from Harlan Laboratories, Indianapolis, Ind., USA) were disinfected with ethanol (70%) and shaved on the middle of the back (approximately a one-inch by one-inch square region around the injection site) one day prior to infection as described from a reported procedure (3). To prepare the bacterial inoculum, an aliquot of overnight culture of MRSA USA300 was transferred to fresh Tryptic soy broth and shaken at 37° C. until an OD600 value of ˜1.0 was achieved. The cells were centrifuged, washed once with PBS, re-centrifuged, and then re-suspended in PBS. Mice subsequently received an intradermal injection (40 μL) containing 2.40×10^9 CFU/mL MRSA USA300.
One group of mice was left untreated (negative control). Each group of mice receiving a particular treatment regimen was housed separately in a ventilated cage with appropriate bedding, food, and water. […] Mice were treated twice daily (once every 12 hours) for three days, before they were humanely euthanized via CO2 asphyxiation 12 hours after the last dose was administered. The region around the skin wound was lightly swabbed with ethanol (70%) and excised. The tissue was subsequently homogenized in PBS. The homogenized tissue was then serially diluted in PBS before plating onto mannitol salt agar plates. Plates were incubated for at least 19 hours at 37° C. before viable MRSA CFU/mL were counted for each group. Outlier was removed based upon the Dixon Q Test.

In the case of `CC(=O)O[C@H]1C[C@@]2(C)[C@@H](C[C@@H](O)[C@H]3[C@@]4(C)CC[C@@H](O)[C@@H](C)[C@@H]4CC[C@@]32C)/C1=C(\CCC=C(C)C)C(=O)O` [fusidic acid], the “fold change of IL-1ra” value is reported as 0.3851, the “fold change of IL-2” value is reported as 0.0606 and the “fold change of IL-2 Ra” value is reported as 0.1879. For the same compound, the “fold change of IL-3” value was −0.1398, the “fold change of IL-3 Rb” value was 0.0789 and the “fold change of IL-4” value was −0.0096. The “fold change of IL-5” value was −0.0953, the “fold change of IL-6” value was 0.2682 and the “fold change of IL-7” value was 0.1116. The “fold change of IL-7 Ra” value was −0.7276, the “fold change of IL-9” value was 0.1408 and the “fold change of IL-10” value was −0.0351. For the same compound, the “fold change of IL-12p40” value was 0.0324, the “fold change of IL-12p70” value was 0.0029 and the “fold change of IL-13” value was −0.5654. The “fold change of IL-15” value was −0.0506, the “fold change of IL-17” value was 0.2684 and the “fold change of IL-17B” value was −0.0513. For the same compound, the “fold change of IL-17B R” value was 0.4884, the “fold change of IL-17E” value was −0.1800 and the “fold change of IL-17F” value was 0.2592. For the same compound, the “fold change of IL-20” value was 0.0953, the “fold change of IL-21” value was −0.4052 and the “fold change of IL-22” value was −0.0487. The “fold change of IL-23” value was 0.2627, the “fold change of IL-28” value was −0.1588 and the “fold change of IL-33” value was 0.3416. For the same compound, the “fold change of JAM-A” value was 0.3062, the “fold change of KC” value was 0.0909 and the “fold change of Kremen-1” value was 0.2672. The “fold change of L-Selectin” value was −0.3559, the “fold change of LIX” value was −0.0313 and the “fold change of LOX-1” value was 0.0568. The “fold change of Leptin” value was −0.1199, the “fold change of Leptin R” value was 0.1134 and the “fold change of Limitin” value was −0.1844. For the same compound, the “fold change of Lipocalin-2” value was −0.0695, the “fold change of Lungkine” value was −0.0819 and the “fold change of Lymphotactin” value was 0.0908. For the same compound, the “fold change of MCP-1” value was 0.0071, the “fold change of MCP-5” value was −0.0915 and the “fold change of MCSF” value was −0.5503. For the same compound, the “fold change of MDC” value was −0.0764, the “fold change of MFG-E8” value was 0.4647 and the “fold change of MIG” value was 0.5378. The “fold change of MIP-1a” value was −0.3165, the “fold change of MIP-1b” value was −0.5769 and the “fold change of MIP-1g” value was 0.0304. For the same compound, the “fold change of MIP-2” value was −0.0070, the “fold change of MIP-3a” value was 0.3460 and the “fold change of MIP-3b” value was 0.0690. The “fold change of MMP-2” value was 0.1026, the “fold change of MMP-3” value was −0.1230 and the “fold change of MMP-10” value was 0.3470. For the same compound, the “fold change of MadCAM-1” value was −0.0787, the “fold change of Marapsin” value was −0.1703 and the “fold change of Neprilysin” value was 0.5936. For the same compound, the “fold change of OPG” value was 0.9914, the “fold change of OPN” value was 0.8216 and the “fold change of P-selectin” value was −0.2374. The “fold change of PDGF-AA” value was 0.4578, the “fold change of PF4” value was −0.6256 and the “fold change of Pentraxin 3” value was −0.6735. The “fold change of Persephin” value was 0.5348, the “fold change of Pro-MMP-9” value was 0.0197 and the “fold change of Prolactin” value was 0.4580. For the same compound, the “fold change of RAGE” value was 0.1727, the “fold change of RANTES” value was −0.2545 and the “fold change of Resistin” value was 0.2752. The “fold change of SCF” value was 0.1498, the “fold change of SDF-1a” value was 0.1707 and the “fold change of SLAM” value was 0.1871. For the same compound, the “fold change of Shh-N” value was −0.0849, the “fold change of TACI” value was 0.4640 and the “fold change of TARC” value was 0.3205. The “fold change of TCA-3” value was −0.1264, the “fold change of TCK-1” value was −0.0185 and the “fold change of TECK” value was 0.4529. The “fold change of TGFb1” value was 0.0743, the “fold change of TNF RI” value was −0.1306 and the “fold change of TNF RII” value was −0.2811. The “fold change of TNFα” value was −0.4306, the “fold change of TPO” value was 0.2663 and the “fold change of TRANCE” value was 0.0310. For the same compound, the “fold change of TREM-1” value was 0.0981, the “fold change of TROY” value was 0.0517 and the “fold change of TSLP” value was −0.0086. For the same compound, the “fold change of TWEAK” value was −0.0621, the “fold change of TWEAK R” value was −0.2341 and the “fold change of TremL1” value was −0.0440. For the same compound, the “fold change of VCAM-1” value was −0.0283, the “fold change of VEGF” value was 0.0403 and the “fold change of VEGF R1” value was 0.1580. For the same compound, the “fold change of VEGF R3” value was 0.1061, the “fold change of VEGF-B” value was 0.0230 and the “fold change of VEGF-D” value was 0.0367. The “fold change of bFGF” value was −0.4981, the “fold change of gp130” value was 0.5867 and the “fold change of sFRP-3” value was 0.0607.
